Data set [1] has as its system A549 human non-small cell lung cancer xenografts. As to the kind of experiment: Single-dose 125I-NM404 treatment, tumor volume, A549 xenografts. The conditions noted are these: unlabeled compound (control group), 10-week assessment. It counts as in vivo, SCID mice. The text has this: FIG. 3 illustrates antitumor effect of single-dose treatment with ^125I-125-NM404 at doses of 50 (∘), 150 (□), 250 (⋄) and 500 (∘) μCi in SCID mice bearing A549 human non-small cell lung cancer xenografts. In FIG. 3, control animals show rapidly growing tumors over the 10-week assessment period. […] Tumor volumes are stable and some tumors appear “collapsed” (the tumor surface has collapsed). Additionally, hair above the tumors fell off confirming substantial accumulation of radioactivity in these tumors.
FIG. 4 is an image showing one of the tumor-bearing animals treated with 250 μCi of ^125I-NM404 at 4 weeks following injection. The hair above the tumor has fallen off, apparently due to the significant accumulation of radioactivity in the tumor. […] The measurement method for determining outer tumor dimensions may have underestimated tumor volume response following dosing with ^125I-NM404;
The inventors have previously shown that ^125I-labeled PLE analogs such as NM404 are effective in targeting tumor therapies to tumor cells following single injection and fractionated dosing. For assessment of efficacy of ^125I-NM404 treatment, assessments of tumor volume were made until 10 weeks post-injection or until no animal in the control group was alive, whatever came first. Summarizing the results, control animals show rapidly growing tumors over the 10-week assessment period. See, FIGS. 2 and 3. […] Tumor volumes are stable and the same tumors appear “collapsed” (the tumor surface has caved in). Additionally, the hair above the tumors fell off confirming substantial accumulation of radioactivity in these tumors, FIG. 4. […] (See also, for example, U.S. patent application Ser. No. 11/671,403 hereby incorporated in its entirety for all purposes.)

Data set [2] concerns Lung NCI H-69 (Oat Cell). Put plainly: Imaging and tissue distribution, tumor model. Type of data set: in vivo, Nude Mouse. Particulars: Adenocarcinoma.
Data set [3] has as its system Colon LS-180. Put plainly: Imaging and tissue distribution, tumor model. Type of data set: in vivo, Nude Mouse. The conditions noted are these: Adenocarcinoma.
Data set [4] has as its system Mammary MCF-7. As to the kind of experiment: Imaging and tissue distribution, tumor model. Type of data set: in vivo, Rat. Particulars: Adenocarcinoma.
In data set [5] the test system is Walker-256 carcinosarcoma. Put plainly: Tissue distribution of radioactivity in Walker-256 carcinosarcoma model. Type of data set: in vivo, rats. Here is the method:
The avidity of PLE and APC analogs to localize in tumors was evaluated in several animal models. The PC-3 model represents a human tumor cell line that was used to determine the target (tumor) to non-target ratio of NM404 and NM412 in head to head comparison in order to select a candidate for an initial human pharmacokinetic trial in prostate cancer patients. The MatLyLu (Dunning R3327 rat) model, a rat prostate tumor line, was used specifically to screen 9 specific analogs prior to entering them into control for dosimetry and tumor-bearing animals for determining tumor/background ratios. Finally, the Walker-256 carcinosarcoma model was used for quantitative tissue distribution purposes.
In order to expedite the screening process and minimize the number of tumor bearing animals utilized in multiple time point tissue distribution studies, new radioiodinated homologs were imaged by gamma camera scintigraphy in the rat Dunning […] (MAT LyLu strain) prostate cancer model. Thus, male Copenhagen rats received a subcutaneous injection of MAT LyLu cells (1×10^6 cells) in the thigh 10-14 days prior to injection of the radioiodinated PLE analogs (30-40 μCi) in 2% Tween-20 solution. Gamma camera images were obtained at multiple time points including 24 and 48 hours post injection. […] Tissue distribution of radioactivity in rats bearing Walker-256 carcinosarcoma was assessed at various time intervals following intravenous administration of the radioiodinated chain length homologs. The first group of compounds that was tested included three alkylphosphocholines: a shorter chain analog with seven carbons NM396 and two analogs with a longer chain length, 13 (NM397, C15 alkyl chain length) and 1 (NM404, C18 alkyl chain length).

Data set [6] concerns SCC1 and 6. As to the kind of experiment: Imaging and tissue distribution, tumor model; tumor regression. Type of data set: in vivo. The conditions noted are these: Squamous cell carcinoma. The text has this:
(§1) During the course of mouse tumor uptake and retention studies with “imaging” doses (15-20 μCi/20 g mouse) of ^125I-labeled NM404, several apparent therapeutic responses have been observed (unpublished results). […] Some of these animals also lost all hair above larger mammary tumors at around 8 days after injection. Moreover, these mice also get intestinal tumors and usually suffer from intestinal bleeding resulting in severe anemia, which renders their feet white. […] Another compelling example of tumor regression is illustrated in FIG. 13. Two litter mates each received SCC1 and SCC6 xenografts in their left and right flanks, respectively. One mouse received a single injection of ^125I-NM404 (20 μCi). […] These coincidental findings were reconfirmed in two separate age-matched groups each involving more than 6 mice.

In data set [7] the test system is Mammary SCC and ACC. Put plainly: Imaging and tissue distribution, tumor model; therapeutic responses at imaging doses. Type of data set: in vivo, Apc^Min/+mouse. The conditions noted are these: Squamous cell carcinoma and Adenocarcinoma.
Source text: as §1

The test system of data set [8] is Adenomatous Polyp. Put plainly: Imaging and tissue distribution, tumor model. Particulars: Adenoma. It counts as in vivo, Spontaneous Mouse.
Data set [9] has as its system non-small cell lung cancer (NSCLC). Put plainly: Initial human pharmacokinetic evaluation, planar gamma-camera scintigraphy. It counts as in vivo. The conditions noted are these: relative to NM324. The text has this:
FIG. 6A-C images of lung cancer patient, posterior whole body planar nuclear medicine image (A) 4 days after iv administration of ^131I-NM404 (0.8 mCi) to a patient with non small cell lung cancer (6 cm dia., arrow). Lung tumor is easily detected in corresponding axial (B) and coronal (C) computed tomography (CT) scans;
In preparation for human clinical trials, unlabeled NM404 was subjected to independent (University of Buffalo Toxicology Research Center) acute toxicity evaluation at 1200 times the anticipated imaging mass dose in rats and rabbits. […] Due to its selective tumor uptake and retention properties in a variety of rodent tumor models and subsequent excellent safety profile in rats and rabbits, NM404 was selected to undergo initial human pharmacokinetic evaluation in non-small cell lung cancer (NSCLC) patients. Patients underwent planar gamma-camera scintigraphy after receiving an injection of ^131I-NM404 (<1 mCi).

The subject of data set [10] is mouse intestinal adenocarcinoma model. As to the kind of experiment: Therapeutic responses at imaging doses, aggressive intestinal model. It counts as in vivo. The conditions noted are these: 12 days following administration, ^125I-labeled.
Source text: as §1

Data set [11] relates to human PC-3 prostate tumor xenografts. Put plainly: Scintigraphy, microPET and tissue distribution in PC-3 tumor model. Particulars: metastatic prostate tumor model, scintigraphy, FIG. 9. Type of data set: in vivo, SCID mice.
Data set [12] relates to animal tumor models. The conditions noted are these: radioiodinated analogs, xenograft and spontaneous tumor rodent models, previous reports; cited from earlier work.

Each structure is given as a SMILES string.

On to `C[N+](C)(C)CCOP(=O)([O-])OCCCCCCCCCCCCCCCCCCc1ccc(I)cc1` [NM404, 18-(p-iodophenyl)-octadecyl phosphocholine], for which the “effect on tumor growth” value in data set [1] is listed as “no substantial effect on tumor growth”. Further, the Uptake result in [2], in data set [3], in [4], in [5] (Carcinosarcoma), in data set [6] and in data set [7] was “Yes” throughout. Moreover, the Uptake entry in [8] is “No”. The “peak radioactivity in the tumor” value in data set [5] (48 hours after administration) is on record as 1.14±0.01 % of ID/g. Besides, the blood levels in data set [5] (120 hours) is given as 0.6±0.1 % of ID/g. In addition, the “time of peak radioactivity in the tumor” value in [5] (after intravenous administration) turned out to be 48 h. In addition, the “total radioactivity levels in the thyroid” value in data set [5] (considering the small mass of the gland) is given as “relatively low”. Moreover, in data set [5] (rat, in vivo), the “radioactivity in liver, kidney and duodenum compared with C15 analog 13” value was “significantly lower”. Also, the “liver and abdominal radioactivity levels” value in data set [9] is given as “much lower”. Moreover, the “intestinal tumors at dissection” value in data set [10] is given as “most, if not all, of the expected intestinal tumors were gone”. Further, the “localization in lymph node metastases” value in data set [11] is on record as “localize in lymph node metastases”. The “selective retention by tumors” value in [12] was “selectively retained by a variety of human and animal tumors”.

Source of the values: patent publication US8022235B2, “Compositions of phospholipid ether boronic acids and esters and methods for their synthesis and use” (Cellectar, Inc., priority 2007, dated 2011).
